Here are results for five compounds from article PMC5779083 (Cellular signalling, 2017).

The subject of series [1] is C57BL/6 mice. As to the kind of experiment: 5′-GNTI-induced scratching. It counts as in vivo. As to conditions: for number of scratches induced: 30 μg/kg s.c.
For series [2], the target named is T1, rKOR (Rattus norvegicus, UniProt P34975). The note with it: rKOR expressing HEK293; cited from earlier work.
For series [3], the target named is T2, hKOR (Homo sapiens, UniProt P41145). The note with it: hKOR-expressing HEK293 cells; cited from earlier work.
Series [4] has as its target rMOR (Rattus norvegicus, UniProt P33535). Briefly: ERK1/2 phosphorylation. Format: cell-based.
For series [5], the system named is untransfected HEK293 cells. Briefly: ERK1/2 and p38 phosphorylation in untransfected HEK293 cells. Format: cell-based. The note with it: untransfected HEK293, 1 μM, 5 min (pERK) or 30 min (pp38), n=3.
Series [6] has as its target T1, rKOR. Briefly: Signaling bias, ERK1/2. Format: cell-based, rodent. As to conditions: ERK1/2 vs p38 phosphorylation, U50,488 as reference.
The target of series [7] is T2, hKOR. Briefly: Signaling bias, ERK1/2. The note with it: ERK1/2 vs p38 phosphorylation, U50,488 as reference. It counts as cell-based.
Series [8] relates to C57BL/6 mice. Briefly: Warm-water tail-withdrawal assay. Format: in vivo. The note with it: for analgesic response (increase in tail withdrawal latency): 30 min post-injection, wild type C57BL/6; for change in tail withdrawal latency after norBNI pretreatment: norBNI 10 mg/kg 3–5 days prior.
For series [9], the system named is C57BL/6 mice. Briefly: Acute cross-tolerance to U50,488 in warm-water tail-withdrawal assay. It counts as in vivo. The note with it: 1 mg/kg i.p. pretreatment.
Series [10] relates to C57BL/6 mice. Briefly: Locomotor activity. The note with it: 50 μg/kg, n=3; no impairment vs saline (p=0.73).

Values joined by “and” are separate entries in the source; they are usually repeats but may differ in a detail not shown here. Equal values may be shown once.

T1 sequence (P34975 whole entry): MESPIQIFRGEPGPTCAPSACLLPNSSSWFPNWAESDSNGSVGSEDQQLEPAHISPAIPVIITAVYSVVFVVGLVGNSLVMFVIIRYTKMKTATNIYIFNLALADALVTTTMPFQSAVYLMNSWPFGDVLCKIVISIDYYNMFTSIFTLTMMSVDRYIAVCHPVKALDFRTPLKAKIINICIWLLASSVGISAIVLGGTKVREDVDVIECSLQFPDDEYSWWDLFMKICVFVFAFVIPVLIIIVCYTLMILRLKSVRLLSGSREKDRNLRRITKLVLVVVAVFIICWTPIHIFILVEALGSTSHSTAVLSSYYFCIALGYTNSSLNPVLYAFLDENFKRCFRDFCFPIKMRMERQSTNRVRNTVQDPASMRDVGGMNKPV
T2 sequence (P41145 whole entry): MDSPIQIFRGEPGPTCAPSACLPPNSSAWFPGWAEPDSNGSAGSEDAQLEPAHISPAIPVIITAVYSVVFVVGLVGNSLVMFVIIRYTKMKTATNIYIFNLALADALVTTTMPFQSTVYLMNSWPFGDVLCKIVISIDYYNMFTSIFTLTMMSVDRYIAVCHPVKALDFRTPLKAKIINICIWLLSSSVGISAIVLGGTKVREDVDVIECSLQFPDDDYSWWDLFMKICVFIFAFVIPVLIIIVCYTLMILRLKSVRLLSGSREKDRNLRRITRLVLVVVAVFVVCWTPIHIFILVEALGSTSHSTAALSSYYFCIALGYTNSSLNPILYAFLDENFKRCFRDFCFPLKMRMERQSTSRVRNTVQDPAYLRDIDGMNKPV
Sequence of rMOR (P33535 whole entry): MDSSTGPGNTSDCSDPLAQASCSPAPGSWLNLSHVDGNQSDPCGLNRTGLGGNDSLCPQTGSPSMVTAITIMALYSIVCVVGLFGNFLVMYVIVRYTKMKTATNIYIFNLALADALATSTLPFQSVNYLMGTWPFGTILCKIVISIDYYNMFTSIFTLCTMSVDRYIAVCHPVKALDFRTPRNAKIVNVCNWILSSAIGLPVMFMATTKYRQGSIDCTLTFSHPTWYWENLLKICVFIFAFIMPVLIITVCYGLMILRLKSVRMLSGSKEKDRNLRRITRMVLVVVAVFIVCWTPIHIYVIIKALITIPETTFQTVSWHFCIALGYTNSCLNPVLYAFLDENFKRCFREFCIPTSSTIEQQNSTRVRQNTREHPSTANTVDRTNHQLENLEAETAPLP

As to `NC(N)=Nc1ccc2[nH]c3c(c2c1)C[C@@]1(O)[C@H]2Cc4ccc(O)c5c4[C@@]1(CCN2CC1CC1)[C@H]3O5` [5′-GNTI], the “number of scratches induced” value was determined as 550 ± 84 times in 30 min in series [1] (KOR−/− mice, n=8) and 566 ± 60 times in 30 min in series [1] (wild type mice, n=10).

Turning to `Oc1ccc2c(c1)[C@@]13CCCC[C@@]1(O)[C@@H](C2)N(CC1CCC1)CC3` [Butorphanol], the “signaling bias (in words)” value in series [2] is on record as “G protein biased”; in series [3], “p38-biased”.

On to `CN(C(=O)/C=C/c1ccoc1)[C@@H]1CC[C@@]2(O)[C@H]3Cc4ccc(O)c5c4[C@@]2(CCN3CC2CC2)[C@H]1O5` [Nalfurafine, (2E)-N-[(5α,6β)-17-(cyclopropylmethyl)-3,14-dihydroxy-4,5-epoxymorphinan-6-yl]-3-(3-furyl)-N methylacrylamide], for which it took 7.9 nM to reach a half-maximal effect in [4] (EC50). For the same compound, in series [5], the “increase in ERK1/2 or p38 phosphorylation” value was “No significant increase”. Moreover, the Bias factor in [6] is 7 and 7.2. For the same compound, the “ΔΔlog(RA) Mean (SEM)” value is reported as 1.15 (0.74) in [6] and 3.2 (1.02) in [7]. Moreover, the results for the “analgesic response (increase in tail withdrawal latency)” value in series [8] (50 μg/kg i.p.) and in series [8] (150 μg/kg i.p.) were 1.5 ± 0.7 s and 1.7 ± 0.4 s, respectively. In addition, the “change in tail withdrawal latency after norBNI pretreatment” value in [8] (50 μg/kg) stood at 0.6 ± 0.1 s; in [8] (150 μg/kg), 0.7 ± 0.2 s. Moreover, the “cross-tolerance: effect of pretreatment on U50,488-induced analgesia” value is on record as “significantly decreased U50,488-induced analgesia” in [9] (3 h before U50,488 15 mg/kg i.p.) and “lack of residual analgesic tolerance” in series [9] (24 h before U50,488 15 mg/kg i.p.). Also, the “5′-GNTI-induced scratching after pretreatment” value is 556 ± 67 scratches in 30 min in [1] (20 μg/kg s.c. 20 min prior to 5′-GNTI, wild type C57BL/6, n=10, not significant); 580 ± 16 times in 30 min in series [1] (50 μg/kg s.c. 20 min prior to 5′-GNTI 30 μg/kg, KOR−/− mice, n=8, not significant); 99 ± 40 times in 30 min in series [1] (50 μg/kg s.c. 20 min prior to 5′-GNTI 30 μg/kg, MOR−/− mice, n=8); 241±33 times in 30 min in series [1] (50 μg/kg s.c. 20 min prior to 5′-GNTI 30 μg/kg, wild type, n=9). Besides, the “general locomotor activity, distance moved over 30 min” value in series [10] stood at 3531 ± 1215 cm.

As for `CC(C)=CCN1CCC2(C)c3cc(O)ccc3CC1C2C` (stereo not shown) [Pentazocine], the Bias factor in [6] came out at 1.4; in series [7], 0.62. Also, the “ΔΔlog(RA) Mean (SEM)” value in [6] is 0.14 (0.79); in series [7] it was −0.20 (0.78). The “signaling bias (in words)” value is “unbiased” in series [2] and “p38-biased” in series [3].

Turning to `Oc1ccc2c3c1O[C@H]1c4[nH]c5c(c4C[C@@]4(O)[C@@H](C2)N(CC2CC2)CC[C@]314)C[C@@]1(O)[C@H]2Cc3ccc(O)c4c3[C@@]1(CCN2CC1CC1)[C@H]5O4` [norBNI, norbinaltorphimine], the “effect on U50,488-mediated increase in withdrawal latency” value in [8] (norBNI 10 mg/kg 3–5 days prior to U50,488, p < 0.01) is “blocked”. Also, the “effect on nalfurafine-mediated increase in withdrawal latency” value in series [8] (norBNI 10 mg/kg 3–5 days prior to nalfurafine, p < 0.05) is “blocked”.
